Experimental data taken from patent US10947574B2, “Method for producing fermented carotenoid using carotenoid-producing bacteria obtained by using cobalt-containing culturing medium” (ENEOS CORPORATION, priority 2015, dated 2021).

Tested on: Paracoccus carotinifaciens strain E-396 (FERM BP-4283)
Assay: Example 3: cobalt concentration series, growth (OD610) and carotenoid levels (HPLC)
Assay type: cell-based
Method: In the following examples, carotenoids were quantified by high performance liquid chromatography (HPLC) as follows.
Two columns of Inertsil SIL-100A, 5 μm (ϕ4.6 mm×250 mm) (GL Sciences Inc., Japan) were connected together for use as a column. For elution, a mixed solution of n-hexane, tetrahydrofuran and methanol (40:20:1) serving as a mobile phase was passed through the column at a flow rate of 1.0 mL per minute at a constant temperature around room temperature. For measurement, samples were each dissolved in tetrahydrofuran and diluted 100-fold with the mobile phase, and 20 μL aliquots of the resulting dilutions were injected into the column. The column eluates were detected at a wavelength of 470 nm. As a standard for quantification, astaxanthin (SIGMA, Cat. No. A9335) was used. The astaxanthin concentration of the standard solution was determined using the following equation after measuring the absorbance (A) of the standard solution at 477 nm and the area percentage % (B) of the astaxanthin peak in HPLC analysis under the above conditions.
Subsequently, a medium of the following composition (glucose 30 g/L, filtered corn steep liquor 30 g/L, ammonium sulfate 1.5 g/L, potassium dihydrogen phosphate 1.5 g/L, disodium hydrogen phosphate dodecahydrate 3.8 g/L, calcium chloride dihydrate 5.0 g/L, magnesium sulfate heptahydrate 0.7 g/L, iron sulfate heptahydrate 1.0 g/L, silicon-based defoaming agent 0.2 g/L) was dispensed in 7.2 ml volumes into cotton-plugged test tubes having an inner diameter of 18 mm to prepare 12 test tubes containing a test tube medium for production. The ingredients used to prepare the test tube medium for production were obtained from lots where microbial cells had been confirmed not to grow well.
The resulting culture solution was then inoculated in 0.05 ml volumes into the 12 types of test tube media for production having different cobalt concentrations, and cultured under shaking at 28° C. for 4 days at 300 spm.
The cobalt concentration in the cobalt chloride-free medium and the concentration of cobalt chloride added to each medium were summed up to calculate the concentration of cobalt present in each medium (Table 6).
After being cultured for 4 days, the culture solutions were each measured for microbial cell growth by OD610 and measure for carotenoid levels by HPLC. […] Moreover, FIGS. 2 to 4 show graphs plotted in enlarged scale for the high and low concentration ranges of cobalt present in the medium.

[1] = cobalt added 0.00042 μmol/L, present 0.0024 μmol/L
[2] = cobalt added 0.0042 μmol/L, present 0.0062 μmol/L
[3] = cobalt added 0.0084 μmol/L, present 0.0104 μmol/L
[4] = cobalt added 0.021 μmol/L, present 0.023 μmol/L
[5] = cobalt added 0.042 μmol/L, present 0.044 μmol/L
[6] = cobalt added 0.42 μmol/L, present 0.42 μmol/L
[7] = cobalt added 1.1 μmol/L, present 1.05 μmol/L
[8] = cobalt added 4.2 μmol/L, present 4.2 μmol/L
[9] = cobalt added 8.4 μmol/L, present 8.4 μmol/L
[10] = cobalt added 21 μmol/L, present 21 μmol/L
[11] = cobalt added 42 μmol/L, present 42 μmol/L

**Q.** `O.O.O.O.O.O.[Cl-].[Cl-].[Co+2]` [Cobalt chloride hexahydrate] was tested. Which “Carotenoid: 3-Hydroxyechinenone” value [1] did it give?
**A.** 0.1 mg/L

**Q.** What about the “Carotenoid: Adonirubin” value [1] of the same compound?
**A.** 0.0 mg/L

**Q.** And the “Carotenoid: Adonixanthin” value [1]?
**A.** 3.0 mg/L

**Q.** And the “Carotenoid: Astaxanthin” value [1]?
**A.** 0.8 mg/L

**Q.** What about the “Carotenoid: Asteroidenone” value [1] of the same compound?
**A.** 0.1 mg/L

**Q.** What about the “Carotenoid: Canthaxanthin” value [1] of the same compound?
**A.** 0.0 mg/L

**Q.** And the “Carotenoid: Echinenone” value [1]?
**A.** 0.0 mg/L

**Q.** What about the “Carotenoid: β-Carotene” value [1] of the same compound?
**A.** 0.2 mg/L

**Q.** And the OD610 [1]?
**A.** 5

**Q.** And the Total carotenoid [1]?
**A.** 4.1 mg/L

**Q.** What about the “Carotenoid: 3-Hydroxyechinenone” value [2] of the same compound?
**A.** 0.3 mg/L

**Q.** And the “Carotenoid: Adonirubin” value [2]?
**A.** 0.4 mg/L

**Q.** What about the “Carotenoid: Adonixanthin” value [2] of the same compound?
**A.** 7.0 mg/L

**Q.** And the “Carotenoid: Astaxanthin” value [2]?
**A.** 3.6 mg/L

**Q.** What about the “Carotenoid: Asteroidenone” value [2] of the same compound?
**A.** 0.3 mg/L

**Q.** What about the “Carotenoid: Canthaxanthin” value [2] of the same compound?
**A.** 0.1 mg/L

**Q.** What about the “Carotenoid: Echinenone” value [2] of the same compound?
**A.** 0.2 mg/L

**Q.** And the “Carotenoid: β-Carotene” value [2]?
**A.** 1.0 mg/L

**Q.** And the OD610 [2]?
**A.** 9

**Q.** What about the Total carotenoid [2] of the same compound?
**A.** 12.9 mg/L

**Q.** What about the “Carotenoid: 3-Hydroxyechinenone” value [3] of the same compound?
**A.** 0.4 mg/L

**Q.** What about the “Carotenoid: Adonirubin” value [3] of the same compound?
**A.** 1.3 mg/L

**Q.** What about the “Carotenoid: Adonixanthin” value [3] of the same compound?
**A.** 4.0 mg/L

**Q.** And the “Carotenoid: Astaxanthin” value [3]?
**A.** 11.7 mg/L

**Q.** What about the “Carotenoid: Asteroidenone” value [3] of the same compound?
**A.** 0.4 mg/L

**Q.** And the “Carotenoid: Canthaxanthin” value [3]?
**A.** 0.9 mg/L

**Q.** What about the “Carotenoid: Echinenone” value [3] of the same compound?
**A.** 0.4 mg/L

**Q.** What about the “Carotenoid: β-Carotene” value [3] of the same compound?
**A.** 1.1 mg/L

**Q.** What about the OD610 [3] of the same compound?
**A.** 18

**Q.** What about the Total carotenoid [3] of the same compound?
**A.** 20.2 mg/L

**Q.** What about the “Carotenoid: 3-Hydroxyechinenone” value [4] of the same compound?
**A.** 0.5 mg/L

**Q.** And the “Carotenoid: Adonirubin” value [4]?
**A.** 8.3 mg/L

**Q.** What about the “Carotenoid: Adonixanthin” value [4] of the same compound?
**A.** 3.1 mg/L

**Q.** What about the “Carotenoid: Astaxanthin” value [4] of the same compound?
**A.** 26.5 mg/L

**Q.** And the “Carotenoid: Asteroidenone” value [4]?
**A.** 0.4 mg/L

**Q.** And the “Carotenoid: Canthaxanthin” value [4]?
**A.** 3.4 mg/L

**Q.** What about the “Carotenoid: Echinenone” value [4] of the same compound?
**A.** 1.4 mg/L

**Q.** What about the “Carotenoid: β-Carotene” value [4] of the same compound?
**A.** 1.0 mg/L

**Q.** And the OD610 [4]?
**A.** 34

**Q.** What about the Total carotenoid [4] of the same compound?
**A.** 44.5 mg/L

**Q.** And the “Carotenoid: 3-Hydroxyechinenone” value [5]?
**A.** 0.5 mg/L

**Q.** What about the “Carotenoid: Adonirubin” value [5] of the same compound?
**A.** 6.4 mg/L

**Q.** And the “Carotenoid: Adonixanthin” value [5]?
**A.** 3.5 mg/L

**Q.** What about the “Carotenoid: Astaxanthin” value [5] of the same compound?
**A.** 25.5 mg/L

**Q.** And the “Carotenoid: Asteroidenone” value [5]?
**A.** 0.4 mg/L

**Q.** What about the “Carotenoid: Canthaxanthin” value [5] of the same compound?
**A.** 2.6 mg/L

**Q.** What about the “Carotenoid: Echinenone” value [5] of the same compound?
**A.** 1.2 mg/L

**Q.** And the “Carotenoid: β-Carotene” value [5]?
**A.** 0.8 mg/L

**Q.** What about the OD610 [5] of the same compound?
**A.** 35

**Q.** And the Total carotenoid [5]?
**A.** 40.9 mg/L

**Q.** And the “Carotenoid: 3-Hydroxyechinenone” value [6]?
**A.** 0.7 mg/L

**Q.** What about the “Carotenoid: Adonirubin” value [6] of the same compound?
**A.** 5.8 mg/L

**Q.** What about the “Carotenoid: Adonixanthin” value [6] of the same compound?
**A.** 3.2 mg/L

**Q.** What about the “Carotenoid: Astaxanthin” value [6] of the same compound?
**A.** 28.6 mg/L

**Q.** And the “Carotenoid: Asteroidenone” value [6]?
**A.** 0.5 mg/L

**Q.** What about the “Carotenoid: Canthaxanthin” value [6] of the same compound?
**A.** 2.3 mg/L

**Q.** And the “Carotenoid: Echinenone” value [6]?
**A.** 1.2 mg/L

**Q.** And the “Carotenoid: β-Carotene” value [6]?
**A.** 0.8 mg/L

**Q.** And the OD610 [6]?
**A.** 37

**Q.** And the Total carotenoid [6]?
**A.** 42.9 mg/L

**Q.** And the “Carotenoid: 3-Hydroxyechinenone” value [7]?
**A.** 0.4 mg/L

**Q.** And the “Carotenoid: Adonirubin” value [7]?
**A.** 7.0 mg/L

**Q.** What about the “Carotenoid: Adonixanthin” value [7] of the same compound?
**A.** 1.7 mg/L

**Q.** What about the “Carotenoid: Astaxanthin” value [7] of the same compound?
**A.** 26.8 mg/L

**Q.** What about the “Carotenoid: Asteroidenone” value [7] of the same compound?
**A.** 0.3 mg/L

**Q.** What about the “Carotenoid: Canthaxanthin” value [7] of the same compound?
**A.** 3.1 mg/L

**Q.** And the “Carotenoid: Echinenone” value [7]?
**A.** 1.2 mg/L

**Q.** And the “Carotenoid: β-Carotene” value [7]?
**A.** 0.8 mg/L

**Q.** What about the OD610 [7] of the same compound?
**A.** 37

**Q.** What about the Total carotenoid [7] of the same compound?
**A.** 41.3 mg/L

**Q.** What about the “Carotenoid: 3-Hydroxyechinenone” value [8] of the same compound?
**A.** 0.2 mg/L

**Q.** And the “Carotenoid: Adonirubin” value [8]?
**A.** 14.3 mg/L

**Q.** And the “Carotenoid: Adonixanthin” value [8]?
**A.** 0.7 mg/L

**Q.** What about the “Carotenoid: Astaxanthin” value [8] of the same compound?
**A.** 14.2 mg/L

**Q.** What about the “Carotenoid: Asteroidenone” value [8] of the same compound?
**A.** 0.1 mg/L

**Q.** And the “Carotenoid: Canthaxanthin” value [8]?
**A.** 8.1 mg/L

**Q.** And the “Carotenoid: Echinenone” value [8]?
**A.** 1.4 mg/L

**Q.** And the “Carotenoid: β-Carotene” value [8]?
**A.** 0.7 mg/L

**Q.** And the OD610 [8]?
**A.** 33

**Q.** What about the Total carotenoid [8] of the same compound?
**A.** 39.7 mg/L

**Q.** What about the “Carotenoid: 3-Hydroxyechinenone” value [9] of the same compound?
**A.** 0.1 mg/L

**Q.** And the “Carotenoid: Adonirubin” value [9]?
**A.** 11.9 mg/L

**Q.** What about the “Carotenoid: Adonixanthin” value [9] of the same compound?
**A.** 0.3 mg/L

**Q.** And the “Carotenoid: Astaxanthin” value [9]?
**A.** 9.3 mg/L

**Q.** What about the “Carotenoid: Asteroidenone” value [9] of the same compound?
**A.** 0.1 mg/L

**Q.** And the “Carotenoid: Canthaxanthin” value [9]?
**A.** 9.9 mg/L

**Q.** What about the “Carotenoid: Echinenone” value [9] of the same compound?
**A.** 2.0 mg/L

**Q.** What about the “Carotenoid: β-Carotene” value [9] of the same compound?
**A.** 0.8 mg/L

**Q.** And the OD610 [9]?
**A.** 31

**Q.** What about the Total carotenoid [9] of the same compound?
**A.** 34.4 mg/L

**Q.** What about the “Carotenoid: 3-Hydroxyechinenone” value [10] of the same compound?
**A.** 0.1 mg/L

**Q.** What about the “Carotenoid: Adonirubin” value [10] of the same compound?
**A.** 6.5 mg/L

**Q.** And the “Carotenoid: Adonixanthin” value [10]?
**A.** 0.2 mg/L

**Q.** What about the “Carotenoid: Astaxanthin” value [10] of the same compound?
**A.** 1.9 mg/L

**Q.** And the “Carotenoid: Asteroidenone” value [10]?
**A.** 0.1 mg/L

**Q.** What about the “Carotenoid: Canthaxanthin” value [10] of the same compound?
**A.** 9.4 mg/L

**Q.** What about the “Carotenoid: Echinenone” value [10] of the same compound?
**A.** 2.8 mg/L

**Q.** What about the “Carotenoid: β-Carotene” value [10] of the same compound?
**A.** 1.2 mg/L

**Q.** What about the OD610 [10] of the same compound?
**A.** 23

**Q.** And the Total carotenoid [10]?
**A.** 22.2 mg/L

**Q.** What about the “Carotenoid: 3-Hydroxyechinenone” value [11] of the same compound?
**A.** 0.0 mg/L

**Q.** And the “Carotenoid: Adonirubin” value [11]?
**A.** 0.2 mg/L

**Q.** What about the “Carotenoid: Adonixanthin” value [11] of the same compound?
**A.** 0.0 mg/L

**Q.** And the “Carotenoid: Astaxanthin” value [11]?
**A.** 0.1 mg/L

**Q.** What about the “Carotenoid: Asteroidenone” value [11] of the same compound?
**A.** 0.0 mg/L

**Q.** What about the “Carotenoid: Canthaxanthin” value [11] of the same compound?
**A.** 0.1 mg/L

**Q.** And the “Carotenoid: Echinenone” value [11]?
**A.** 0.0 mg/L

**Q.** And the “Carotenoid: β-Carotene” value [11]?
**A.** 0.0 mg/L

**Q.** And the OD610 [11]?
**A.** 3

**Q.** What about the Total carotenoid [11] of the same compound?
**A.** 0.4 mg/L
